Results reported in US20260258048A1, “LACTAM-CONTAINING IMIDAZOPYRIDAZINE IL-17 INHIBITOR COMPOUNDS” (Janssen Pharmaceutica NV, priority 2023, published 2026).

Assays:
[1] = target: IL-17A(FLAG-tagged): IL-17RA(His-tagged) (Homo sapiens, UniProt Q16552, K93Q); experiment: IL-17A(FLAG-tagged): IL-17RA(His-tagged) binding disruption Eu-HTRF assay; settings: class of the average IC50 where tested more than once
Excerpt: IL-17A(FLAG-tagged): IL-17RA(His-tagged) binding disruption Eu-HTRF assay An antibody directed against the FLAG tag of IL-17A (SEQ ID NO: 1) is labeled with the HTRF donor chromophore (Europium-cryptate). IL-17A is present as a dimer that is “locked into” this quaternary structure due to the formation of loop-spanning intramolecular disulfide bridges. The construct of IL-17RA used in the assay excludes the […] portion of the receptor and is fused to a C-terminal 10×His tag (SEQ ID NO:2). An antibody directed against the His tag of the IL-17RA chimera is labeled with the HTRF acceptor chromophore (“D2”). The fluorescence-resonance energy transfer (FRET) depends on the vicinity of the donor chromophore to the acceptor, and interruption of the binding between the IL-17A and IL-17RA causes the reduction/loss of FRET. Therefore, this assay allows to evaluate the compound effect on the binding IL-17A and IL-17RA by monitoring the fluorescence intensity of donor vs acceptor. The assay is run as described below.
40 nl of 2-fold serial diluted compound solution for total 22 dilution points is added into each well of a 1536-well, white, low-volume, non-binding plate (Greiner #782904), then 2 μl of FLAG tagged IL-17A at 2× final concentration (1 μM) in solution of PBS+0.01% Triton-X100 is added to each well. The assay plate is briefly centrifuged then incubated for 1 h at rt. A mixed solution is prepared containing 2×5 nM 10HIS×IL-17RA, 2×2.5 nM Eu-anti-FLAG (CISBIO), 2×5 nM D2-anti-HIS (CISBIO) in PBS+0.01% Triton-X100+200 mM Potassium Fluoride (Sigma 60238) and 2 μl of mix is added to each well of the assay plate. The plate is briefly centrifuged then incubated for 2 h at rt. The HTRF intensities at the wavelength of donor (615 nm) and acceptor (665 nm) are measured using BMG Pherastar. The ratio between intensities at two wavelengths is calculated and plotted against the compound concentration and the data is fitted to a one-site competition model to yield IC50 of the compound.

[2] = system: IL-17A-induced G-CSF production in human normal keratinocyte (NHK); experiment: NHK assay: IL-17A-induced G-CSF production in normal human keratinocytes; assay type: cell-based; settings: Homo sapiens, Keratinocyte, 24 h, IL-17A 5 ng/mL, class of the average IC50 where tested more than once
Procedure: IL-17A acts directly on keratinocytes through binding to dimeric receptor IL-17RA/RC and drives the production of a number of inflammatory mediators known to be elevated in psoriasis lesional tissue. IL-17A small molecule inhibitors that block the IL-17A to interact with IL-17R would inhibit the IL-17A signaling in its targeted cells such as keratinocytes. The compound functional activity is evaluated for its impact on IL-17A-induced G-CSF production in human normal keratinocyte (NHK).
Adult normal human keratinocytes are cultured in keratinocyte growth medium (Lonza) in a flask till reaching ~90% confluence, then cells are transferred to a 384-well plate at density of 3000-4000 cell/well. Recombinant human IL-17A (Gibco PHC9174) is pre-incubated with titrated compound or DMSO for 1 h at rt then added to the cell culture plate. The final concentration of IL-17A is 5 ng/mL and DMSO is 0.2%, in the culture containing 5% FBS. Cells are cultured/treated for 24 h at 37° C. Supernatants are collected and G-CSF production is measured through HTRF technology using Human G-CSF Kit (CisBio). G-CSF concentration was extrapolated from the standard curve and IC50 is determined using GraphPad Prism. Cell viability is also evaluated using CellTiter-Glo kit (Promega) and effect of compound on cell viability is compared to DMSO control.

Sequence of UniProt Q16552 (Q16552 with tags, fused parts or gaps K93Q): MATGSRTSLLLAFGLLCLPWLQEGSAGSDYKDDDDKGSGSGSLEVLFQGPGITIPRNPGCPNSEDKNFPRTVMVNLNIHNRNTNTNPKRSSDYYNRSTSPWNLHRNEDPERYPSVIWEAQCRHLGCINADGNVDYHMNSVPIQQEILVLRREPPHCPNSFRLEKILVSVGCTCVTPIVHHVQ

**Q.** What does the source list for `CC1(C(=O)c2cnn3cc([C@@H](NC(=O)c4nonc4C4CC4)C4CCC(F)(F)CC4)nc3c2)C[C@@H](C(F)(F)F)NC1=O` (mixture of isomers) [Example 102, 4-Cyclopropyl-N—[(S)-(4,4-difluorocyclohexyl)-[7-[(3RS,5S)-3-methyl-2-oxo-5-(trifluoromethyl)pyrrolidine-3-carbonyl]imidazo[1,2-b]pyridazin-2-yl]methyl]-1,2,5-oxadiazole-3-carboxamide]?
**A.** IC50 [1]: < 0.4 µM; IC50 [2]: < 0.4 µM

**Q.** For `O=C(N[C@H](c1cn2ncc(C[C@]34CCC[C@@H](C3)NC4=O)cc2n1)C1CCC(F)(F)CC1)c1nonc1C1CC1` (relative stereo) [Example 12, 4-Cyclopropyl-N—[(S)-(4,4-difluorocyclohexyl)-[7-[[(1S*5S*)-7-oxo-6-azabicyclo[3.2.1]octan-1-yl]methyl]imidazo[1,2-b]pyridazin-2-yl]methyl]-1,2,5-oxadiazole-3-carboxamide], which IC50 [1] is on record?
**A.** Its IC50 is > 4 µM.

**Q.** What about the IC50 [2] of the same compound?
**A.** The IC50 was 0.4 to 4 µM.

**Q.** For `CC[C@@H](c1cnn2cc([C@@H](NC(=O)c3nonc3C3CC3)C3CCC(F)(F)CC3)nc2c1)[C@@H]1C[C@@H](C(F)(F)F)NC1=O` (relative stereo) [Example 20, 4-Cyclopropyl-N—((S)-(4,4-difluorocyclohexyl)(7-((R*)-1-((3S*,5S)-2-oxo-5-(trifluoromethyl)pyrrolidin-3-yl)propyl)imidazo[1,2-b]pyridazin-2-yl)methyl)-1,2,5-oxadiazole-3-carboxamide], which IC50 [1] is on record?
**A.** Its IC50 is 0.4 to 4 µM.

**Q.** And the IC50 [2]?
**A.** Its IC50 is 0.4 to 4 µM.

**Q.** For `O=C(N[C@H](c1cn2ncc([C@@H]3C[C@@]34C[C@@H](C(F)(F)F)NC4=O)cc2n1)C1CCC(F)(F)CC1)c1nonc1C1CC1` (relative stereo) [Example 38, 4-Cyclopropyl-N—((S)-(4,4-difluorocyclohexyl)(7-((1S*,3R*,6S)-4-oxo-6-(trifluoromethyl)-5-azaspiro[2.4]heptan-1-yl)imidazo[1,2-b]pyridazin-2-yl)methyl)-1,2,5-oxadiazole-3-carboxamide], which IC50 [1] is on record?
**A.** Its IC50 is < 0.4 µM.

**Q.** And the IC50 [2]?
**A.** Its IC50 is 0.4 to 4 µM.

**Q.** Which results are given for `O=C(N[C@H](c1cn2ncc([C@@H]3C[C@]34C[C@@H](C(F)(F)F)NC4=O)cc2n1)C1CCC(F)(F)CC1)c1nonc1C1CC1` (relative stereo) [Example 39, 4-Cyclopropyl-N—((S)-(4,4-difluorocyclohexyl)(7-((S*,3S*,6S)-4-oxo-6-(trifluoromethyl)-5-azaspiro[2.4]heptan-1-yl)imidazo[1,2-b]pyridazin-2-yl)methyl)-1,2,5-oxadiazole-3-carboxamide]?
**A.** IC50 [1]: > 4 µM; IC50 [2]: > 4 µM

**Q.** Which results are given for `O=C(N[C@H](c1cn2ncc([C@H]3C[C@@]34C[C@@H](C(F)(F)F)NC4=O)cc2n1)C1CCC(F)(F)CC1)c1nonc1C1CC1` (relative stereo) [Example 41, 4-Cyclopropyl-N—((S)-(4,4-difluorocyclohexyl)(7-((1R*,3R*,6S)-4-oxo-6-(trifluoromethyl)-5-azaspiro[2.4]heptan-1-yl)imidazo[1,2-b]pyridazin-2-yl)methyl)-1,2,5-oxadiazole-3-carboxamide]?
**A.** IC50 [1]: > 4 µM; IC50 [2]: > 4 µM

**Q.** For `O=C(N[C@H](c1cn2ncc(C[C@H]3C(=O)NCC[C@H]3C(F)(F)F)cc2n1)C1CCC(F)(F)CC1)c1nonc1C1CC1` (relative stereo) [Example 44, 4-Cyclopropyl-N—((S)-(4,4-difluorocyclohexyl)(7-(((3R*,4R*)-2-oxo-4-(trifluoromethyl)piperidin-3-yl)methyl)imidazo[1,2-b]pyridazin-2-yl)methyl)-1,2,5-oxadiazole-3-carboxamide], which IC50 [1] is on record?
**A.** The IC50 was 0.4 to 4 µM.

**Q.** And the IC50 [2]?
**A.** Its IC50 is > 4 µM.

**Q.** Which results are given for `O=C(N[C@H](c1cn2ncc(C[C@@H]3C(=O)NCC[C@@H]3C(F)(F)F)cc2n1)C1CCC(F)(F)CC1)c1nonc1C1CC1` (relative stereo) [Example 45, 4-Cyclopropyl-N—((S)-(4,4-difluorocyclohexyl)(7-(((3S*,4S*)-2-oxo-4-(trifluoromethyl)piperidin-3-yl)methyl)imidazo[1,2-b]pyridazin-2-yl)methyl)-1,2,5-oxadiazole-3-carboxamide]?
**A.** IC50 [1]: 0.4 to 4 µM; IC50 [2]: > 4 µM

**Q.** For `Cc1nonc1C(=O)N[C@H](c1cn2ncc(C[C@H]3CC[C@H](C(F)(F)F)NC3=O)cc2n1)C1CCC(F)(F)CC1` (relative stereo) [Example 46, N—((S)-(4,4-difluorocyclohexyl)(7-(((3R*,6R*)-2-oxo-6-(trifluoromethyl)piperidin-3-yl)methyl)imidazo[1,2-b]pyridazin-2-yl)methyl)-4-methyl-1,2,5-oxadiazole-3-carboxamide], which IC50 [1] is on record?
**A.** The IC50 was > 4 µM.

**Q.** And the IC50 [2]?
**A.** Its IC50 is > 4 µM.

**Q.** Which IC50 [1] does the source give for `Cc1nonc1C(=O)N[C@H](c1cn2ncc(C[C@H]3CC[C@@H](C(F)(F)F)NC3=O)cc2n1)C1CCC(F)(F)CC1` (relative stereo) [Example 47, N—((S)-(4,4-difluorocyclohexyl)7-(((3R*,6S*)-2-oxo-6-(trifluoromethyl)piperidin-3-yl)methyl)imidazo[1,2-b]pyridazin-2-yl)methyl)-4-methyl-1,2,5-oxadiazole-3-carboxamide] here?
**A.** Its IC50 is < 0.4 µM.

**Q.** And the IC50 [2]?
**A.** The IC50 was 0.4 to 4 µM.

**Q.** How did the IC50 [1] turn out when `Cc1nonc1C(=O)N[C@H](c1cn2ncc(C[C@@H]3CC[C@H](C(F)(F)F)NC3=O)cc2n1)C1CCC(F)(F)CC1` (relative stereo) [Example 48, N—((S)-(4,4-difluorocyclohexyl)7-(((3S*,6R*)-2-oxo-6-(trifluoromethyl)piperidin-3-yl)methyl)imidazo[1,2-b]pyridazin-2-yl)methyl)-4-methyl-1,2,5-oxadiazole-3-carboxamide] was run?
**A.** The IC50 was > 4 µM.

**Q.** And the IC50 [2]?
**A.** Its IC50 is > 4 µM.

**Q.** Which IC50 [1] does the source give for `O=C(N[C@H](c1cn2ncc(C[C@@H]3C(=O)NC[C@@H]3C(F)(F)F)cc2n1)C1CCC(F)(F)CC1)c1nonc1C1CC1` (relative stereo) [Example 49, 4-Cyclopropyl-N—((S)-(4,4-difluorocyclohexyl)(7-(((3S*,4R*)-2-oxo-4-(trifluoromethyl)pyrrolidin-3-yl)methyl)imidazo[1,2-b]pyridazin-2-yl)methyl)-1,2,5-oxadiazole-3-carboxamide] here?
**A.** The IC50 was 0.4 to 4 µM.

**Q.** And the IC50 [2]?
**A.** The IC50 was > 4 µM.

**Q.** `CC[C@H]1C[C@H](Cc2cnn3cc([C@@H](NC(=O)c4nonc4C4CC4)C4CCC(F)(F)CC4)nc3c2)C(=O)N1` (relative stereo) [Example 91, 4-Cyclopropyl-N—[(S)-(4,4-difluorocyclohexyl)-[7-[[(3S*,5S*)-5-ethyl-2-oxo-pyrrolidin-3-yl]methyl]imidazo[1,2-b]pyridazin-2-yl]methyl]-1,2,5-oxadiazole-3-carboxamide] was tested. Which IC50 [1] did it give?
**A.** Its IC50 is 0.4 to 4 µM.

**Q.** `CC[C@H]1C[C@@H](Cc2cnn3cc([C@@H](NC(=O)c4nonc4C4CC4)C4CCC(F)(F)CC4)nc3c2)C(=O)N1` (relative stereo) [Example 92, 4-Cyclopropyl-N—[(S)-(4,4-difluorocyclohexyl)-[7-[[(3R*,5S*)-5-ethyl-2-oxo-pyrrolidin-3-yl]methyl]imidazo[1,2-b]pyridazin-2-yl]methyl]-1,2,5-oxadiazole-3-carboxamide] was tested. Which IC50 [1] did it give?
**A.** The IC50 was > 4 µM.

**Q.** Which IC50 [1] does the source give for `O=C(N[C@H](c1cn2ncc(CC3CCCNC3=O)cc2n1)C1CCC(F)(F)CC1)c1nonc1C1CC1` (single isomer, unassigned) [Example 23, 4-Cyclopropyl-N—[(S)-(4,4-difluorocyclohexyl)-[7-[[(3R*)-2-oxo-3-piperidyl]methyl]imidazo[1,2-b]pyridazin-2-yl]methyl]-1,2,5-oxadiazole-3-carboxamide] here?
**A.** Its IC50 is 0.4 to 4 µM.

**Q.** How did the IC50 [1] turn out when `O=C(N[C@H](c1cn2ncc(CC3CCCNC3=O)cc2n1)C1CCC(F)(F)CC1)c1nonc1C1CC1` (single isomer, unassigned) [Example 24, 4-Cyclopropyl-N—[(S)-(4,4-difluorocyclohexyl)-[7-[[(3S*)-2-oxo-3-piperidyl]methyl]imidazo[1,2-b]pyridazin-2-yl]methyl]-1,2,5-oxadiazole-3-carboxamide] was run?
**A.** Its IC50 is 0.4 to 4 µM.
